What all share (type): cell-based
One assay has as its system KMS12PE Bcl2 V156D. Description: In vitro cytotoxicity CellTiterGlo 72 h, KMS12PE Bcl2 V156D. The conditions noted are these: Homo sapiens, KMS-12-PE, read-out: C50 nM, KMS12PE Bcl2 V156D. The protocol: (§1) KMS-12-PE (ACC 606) were purchased from the Leibniz-Institute DSMZ (Braunschweig, Germany) and were grown at 37° C. in a humidified atmosphere with 5% CO2 in media recommended by the suppliers. Lentiviral particles containing Bcl-2 wild type (also named “Bcl2 WT”), Bcl-2 mutated on G101V (also named “Bcl2 G101V”), Bcl-2 mutated on D103Y (also named “Bcl2 D103Y”), Bcl-2 mutated on D103V (also named “Bcl2 D103V”), Bcl-2 mutated on D103E (also named “Bcl2 D103E”), Bcl-2 mutated on F104I (also named “Bcl2 F104I”), Bcl-2 mutated on F104L (also named “Bcl2 F104L”), Bcl-2 mutated on D111A (also named “Bcl2 D111A”), Bcl-2 mutated on A113G (also named “Bcl2 A113G”), Bcl-2 mutated on R129L (also named “Bcl2 R129L”), Bcl-2 mutated on V156D (also named “Bcl2 V156D”) were cloned into pcLV-CMV-DEST-IRES-TagRFP. Lentiviral particles (1×10^6) were mixed with Polybrene at 8 μg/ml and transduced by spinoculation for 1 h at 32° C. and incubated overnight. After 8 days, TagRFP positive-cells were sorted by FACS. BCL2 expression was monitored by immunoblotting using anti-Flag and anti-BCL2 antibodies. Cells were seeded into 96-wells plates and treated with 1:3.16 serial dilution of compounds (9 different concentrations). Cell viability was assessed using CellTiterGlo reagent following treatment for 72 h. Results were normalized to the viability of cells without compounds (control wells). The C50 values were calculated using nonlinear regression algorithms in XCell software.
Background: Cellular ATP, detected with luciferase, serves as a proxy for viable cell number.

The next assay relates to KMS12PE Bcl2 F104I. Description: In vitro cytotoxicity CellTiterGlo 72 h, KMS12PE Bcl2 F104I. The settings on record: Homo sapiens, KMS-12-PE, read-out: C50 nM, KMS12PE Bcl2 F104I. Here is the method: as §1
The subject of a further assay is KMS12PE Bcl2 R129L. Nature of the assay: In vitro cytotoxicity CellTiterGlo 72 h, KMS12PE Bcl2 R129L. The settings on record: Homo sapiens, KMS-12-PE, read-out: C50 nM, KMS12PE Bcl2 R129L. The protocol: as §1
A further assay deals with KMS-12-PE Bcl-2 WT. Nature of the assay: In vitro cytotoxicity CellTiter-Glo 48 h, KMS-12-PE Bcl-2 WT. The settings on record: Homo sapiens, KMS-12-PE, C50 = concentration needed to reach 50% of the cellular viability. Summed up: (§2)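 KMS-12-PE myeloma cells were lentivirally transduced with wild-type or G101V-mutant Bcl-2 and sorted by TagRFP. They were exposed to compounds as 11-point dose responses for 48 h at 37 °C, 5% CO2. Viability was read by CellTiter-Glo ATP luminescence, and C50 was the concentration giving 50% viability.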

For a further assay, the system named is KMS-12-PE Bcl-2 G101V. Nature of the assay: In vitro cytotoxicity CellTiter-Glo 48 h, KMS-12-PE Bcl-2 G101V. The settings on record: for Ratio (G101V/WT): C50 KMS-12-PE Bcl-2 G101V over C50 KMS-12-PE Bcl-2 WT; for IC50: Homo sapiens, KMS-12-PE, 48 h, CellTiter-Glo, C50 = concentration needed to reach 50% of the cellular viability. Summed up:
as §2

`Cc1c(C(=O)N(c2ccc(O)cc2)c2cc(C#N)n(C(F)F)c2C)cc(-c2cc3c(cc2C(=O)N2Cc4ccccc4C[C@H]2CN2CCCCC2)CN(C(=O)Cc2ccc(OCCN4CCOCC4)cc2F)CC3)n1C` [Example 78, N-[5-cyano-1-(difluoromethyl)-2-methylpyrrol-3-yl]-5-[2-(2-{2-fluoro-4-[2-(morpholin-4-yl)ethoxy]phenyl}acetyl)-7-{[(3S)-3-(piperidin-1-ylmethyl)-3,4-dihydro-1H-isoquinolin-2-yl]carbonyl}-3,4-dihydro-1H-isoquinolin-6-yl]-N-(4-hydroxyphenyl)-1,2-dimethylpyrrole-3-carboxamide]: the IC50 in the assay on KMS12PE Bcl2 V156D came to 5.88 nM; with KMS12PE Bcl2 F104I, 21.8 nM; in the assay with KMS12PE Bcl2 R129L, 0.9 nM; with KMS-12-PE Bcl-2 WT it was 0.005 µM; with KMS-12-PE Bcl-2 G101V, 0.0299 µM. The “Ratio (G101V/WT)” value in the assay with KMS-12-PE Bcl-2 G101V was 5.98.

For `Cc1c(N(C(=O)c2cc(-c3cc4c(cc3C(=O)N3Cc5ccccc5C[C@H]3CN3CCC[C@H](C)C3)CN(C(=O)Cc3ccc(OCCN5CCOCC5)cc3F)CC4)n(C)c2C)c2ccc(O)cc2)cc(C#N)n1C` [Example 107], the IC50 in the assay with KMS12PE Bcl2 V156D was 5.93 nM; in the assay with KMS12PE Bcl2 F104I, 23.6 nM; with KMS12PE Bcl2 R129L, 1.12 nM; in the assay with KMS-12-PE Bcl-2 WT, 0.0034 µM; with KMS-12-PE Bcl-2 G101V, 0.0166 µM. Further, the “Ratio (G101V/WT)” value in the assay with KMS-12-PE Bcl-2 G101V is on record as 4.47.

(Values after patent publication US20250179047A1, “5-[7-(3,4-DIHYDRO-1H-ISOQUINOLINE-2-CARBONYL)-1,2,3,4 TETRAHYDROISOQUINOLIN-6-YL]-1H-PYRROLE-3-CARBOXAMIDE DERIVATIVES, PHARMACEUTICAL COMPOSITIONS CONTAINING THEM AND THEIR USES AS PRO-APOPTOTIC AGENTS” (LES LABORATOIRES SERVIER, priority 2022, published 2025).)
